From patent US8618094B2, “Fused substituted aminopyrrolidine derivative” (Daiichi Sankyo Company, Limited, priority 2007, dated 2013)
Counter-ions that a name gives are not always drawn.

SMILES	melting point
COc1c(N2C[C@@H]3CCC[C@]3(N)C2)c(F)cc2c(=O)c(C(=O)O)cn([C@@H]3C[C@@H]3F)c12 (relative stereo) [Example 12, 7-[(1R*,5S*)-1-Amino-3-azabicyclo[3.3.0]octan-3-yl]-6-fluoro-1-[(1R,2S)-2-fluorocyclopropyl]-8-methoxy-1,4-dihydro-4-oxoquinoline-3-carboxylic acid]	171 to 174 °C
COc1c(N2CC3(C)CCC3(N)C2)c(F)cc2c(=O)c(C(=O)O)cn([C@@H]3C[C@@H]3F)c12 (stereo in doubt) [Example 7, 7-[(1R,5S)-1-Amino-5-methyl-3-azabicyclo[3.2.0]hept-3-yl]-6-fluoro-1-[(1R,2S)-2-fluorocyclopropyl]-1,4-dihydro-8-methoxy-4-oxoquinoline-3-carboxylic acid]	123 to 125 °C
C[C@H]1C[C@@]2(N)CN(c3c(F)cc4c(=O)c(C(=O)O)cn5c4c3OC[C@@H]5C)C[C@@H]12 [Example 3, 10-{(1S,5R,6S)-1-Amino-6-methyl-3-azabicyclo[3.2.0]hept-3-yl}-9-fluoro-2,3-dihydro-3-(S)-methyl-7-oxo-7H-pyrido[1,2,3-de][1, 4]benzoxazine-6-carboxylic acid]	122 to 124 °C
COc1c(N2C[C@]3(N)CC[C@]3(F)C2)c(F)cc2c(=O)c(C(=O)O)cn([C@@H]3C[C@@H]3F)c12 [Example 6, 7-[(1R,5S)-1-Amino-5-fluoro-3-azabicyclo[3.2.0]hept-3-yl]-6-fluoro-1-[(1R,2S)-2-fluorocyclopropyl]-1,4-dihydro-8-methoxy-4-oxoquinoline-3-carboxylic acid]	235 °C (dec.)
C[C@H]1COc2c(N3C[C@]4(N)CCC[C@]4(F)C3)c(F)cc3c(=O)c(C(=O)O)cn1c23 [Example 13, 10-[(1R,5S)-1-Amino-5-fluoro-3-azabicyclo[3.3.0]octan-3-yl]-9-fluoro-2,3-dihydro-3-(S)-methyl-7-oxo-7H-pyrido[1,2,3-de][1,4]benzoxazine-6-carboxylic acid]	285 to 293 °C (dec.)
N#Cc1c(N2C[C@]3(N)CCC[C@]3(F)C2)c(F)cc2c(=O)c(C(=O)O)cn([C@@H]3C[C@@H]3F)c12 [Example 14, 7-[(1R,5S)-1-Amino-5-fluoro-3-azabicyclo[3.3.0]octan-3-yl]-8-cyano-6-fluoro-1-[(1R,2S)-2-fluorocyclopropan-1-yl]-1,4-dihydro-4-oxoquinoline-3-carboxylic acid]	268 to 280 °C (dec.)
COc1c(N2C[C@H]3[C@H](F)CC[C@@]3(N)C2)c(F)cc2c(=O)c(C(=O)O)cn([C@@H]3C[C@@H]3F)c12 [Example 20, 7-{(1S,5R,6R)-1-Amino-6-fluoro-3-azabicyclo[3,3,0]octan-3-yl}-6-fluoro-1-[(1R,2S)-2-fluorocyclopropyl]-1,4-dihydro-8-methoxy-4-oxoquinoline-3-carboxylic acid]	179 to 181 °C
COc1c(N2C[C@H]3[C@@H](F)CC[C@@]3(N)C2)c(F)cc2c(=O)c(C(=O)O)cn([C@@H]3C[C@@H]3F)c12 [Example 21, 7-[(1S,5R,6S)-1-Amino-6-fluoro-3-azabicyclo[3,3,0]octan-3-yl]-6-fluoro-1-[(1R,2S)-2-fluorocyclopropyl]-1,4-dihydro-8-methoxy-4-oxoquinoline-3-carboxylic acid]	117 to 119 °C
COc1c(N2C[C@H]3C(F)(F)CC[C@@]3(N)C2)c(F)cc2c(=O)c(C(=O)O)cn([C@@H]3C[C@@H]3F)c12 [Example 22, 7-[(1S,5R)-1-Amino-6,6-difluoro-3-azabicyclo[3,3,0]octan-3-yl]-6-fluoro-1-[(1R,2S)-2-fluorocyclopropyl]-1,4-dihydro-8-methoxy-4-oxoquinoline-3-carboxylic acid]	239 to 241 °C
Cc1c(N2C[C@H]3CCOC[C@@]3(N)C2)c(F)cc2c(=O)c(C(=O)O)cn([C@@H]3C[C@@H]3F)c12 [Example 41, 7-[(1S,6R)-1-Amino-3-oxa-8-azabicyclo[4,3,0]nonan-8-yl]-6-fluoro-1-[(1R,2S)-2-fluorocyclopropyl]-1,4-dihydro-8-methyl-4-oxoquinoline-3-carboxylic acid]	158 to 160 °C
C[C@H]1COc2c(N3C[C@@H]4CCOC[C@@]4(N)C3)c(F)cc3c(=O)c(C(=O)O)cn1c23 [Example 42, 10-[(1S,6S)-1-Amino-3-oxa-8-azabicyclo[4,3,0]nonan-8-yl]-9-fluoro-2,3-dihydro-3-methyl-(S)-7-oxo-7H-pyrido[1,2,3-de][1,4]benzoxazine-6-carboxylic acid]	> 300 °C

The next lines start with the values.

melting point	SMILES
202 to 204 °C	COc1c(N2CC3(N)CCC4CC43C2)c(F)cc2c(=O)c(C(=O)O)cn([C@@H]3C[C@@H]3F)c12 (stereo partly drawn) (as salt: methanesulfonate) [Example 57, 7-[6-amino-8-azatricyclo[4.3.0.0^1,3]nonan-8-yl]-6-fluoro-1-[(1R,2S)-2-fluorocyclopropan-1-yl]-8-methoxy-4-oxo-1,4-dihydroquinoline-3-carboxylic acid methanesulfonate]
122 to 125 °C	COc1c(N2C[C@H]3C(CF)C[C@@]3(N)C2)c(F)cc2c(=O)c(C(=O)O)cn([C@@H]3C[C@@H]3F)c12 (single isomer, unassigned) [Example 49]
193 to 195 °C	COc1c(N2C[C@H]3C(CF)C[C@@]3(N)C2)c(F)cc2c(=O)c(C(=O)O)cn([C@@H]3C[C@@H]3F)c12 (single isomer, unassigned) [Example 50]
130 to 133 °C	Cc1c(N2C[C@H]3C(CF)C[C@@]3(N)C2)c(F)cc2c(=O)c(C(=O)O)cn([C@@H]3C[C@@H]3F)c12 (single isomer, unassigned) [Example 51]
145 to 149 °C	Cc1c(N2CC3(N)CCC4CC43C2)c(F)cc2c(=O)c(C(=O)O)cn([C@@H]3C[C@@H]3F)c12 (single isomer, unassigned) [Example 54]
> 254 °C (dec.)	Cc1c(N2CC3(N)CCC4CC43C2)ccc2c(=O)c(C(=O)O)cn([C@@H]3C[C@@H]3F)c12 (single isomer, unassigned) [Example 55]
161 to 163 °C	COc1c(N2CC3(Cl)CCC[C@@]3(N)C2)c(F)cc2c(=O)c(C(=O)O)cn([C@@H]3C[C@@H]3F)c12 (stereo in doubt) [Example 53, 7-[(1R,5R)-1-Amino-5-chloro-3-azabicyclo[3.3.0]octan-3-yl]-6-fluoro-1-[(1R,2S)-2-fluorocyclopropan-1-yl]-1,4-dihydro-8-methoxy-4-oxoquinoline-3-carboxylic acid]
> 272 °C (dec.)	Cc1c(N2C[C@]3(N)CC[C@]3(F)C2)c(F)cc2c(=O)c(C(=O)O)cn([C@@H]3C[C@@H]3F)c12 [Example 56, 7-{(1R,5S)-1-Amino-5-fluoro-3-azabicyclo[3.2.0]heptan-3-yl}-6-fluoro-1-[(1R,2S)-2-fluorocyclopropan-1-yl]-8-methyl-4-oxo-1,4-dihydroquinoline-3-carboxylic acid]
201 to 202 °C	COc1c(N2C[C@H]3COC[C@@]3(N)C2)c(F)cc2c(=O)c(C(=O)O)cn([C@@H]3C[C@@H]3F)c12 [Example 59, 7-[(3aS)-3a-Aminotetrahydrofuro[3,4-c]pyrrol-5-yl]-6-fluoro-1-[(1R,2S)-2-fluorocyclopropyl]-1,4-dihydro-8-methoxy-4-oxoquinoline-3-carboxylic acid]
